Data: US8148391B2 (Cephalon, Inc., priority 2006, dated 2012)
Like-named read-outs stand apart in the source and are kept apart here. Blank lines part the entries; values can stand above or below the compound they belong to.

Legend:
[1] = target: T1, baculovirus-expressed ALK (Homo sapiens, UniProt Q9UM73); experiment: ALK Kinase Assay (ELISA-type, time-resolved fluorescence); type: biochemical
T1 construct: host or cells: baculovirus expression system
Procedure, shortened: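 Plates coated with phospholipase C-γ substrate (10 μg/mL in TBS); reaction started with 30 ng/ml ALK and run 15 min at 37° C. Phosphorylated substrate detected with Eu-N1-labeled PT66 antibody. IC50 from sigmoidal variable-slope fit of percent inhibition vs log concentration.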

[2] = target: T2, c-Met (cytoplasmic domain) (Homo sapiens, UniProt P08581); experiment: c-Met Kinase Assay (same methods as for ALK, with modifications); type: biochemical
T2 construct: 10 ng/mL c-Met (cytoplasmic domain, Invitrogen Corporation #PV3143); purchased Invitrogen Corporation PV3143
Procedure, shortened: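 Europium-labeled PT66 antibody (Eu-N1) detects substrate phosphorylation on wells coated with phospholipase C-γ at 10 μg/mL. The kinase, the cytoplasmic domain of c-Met at 10 ng/mL, starts the reaction, which proceeds 15 minutes at 37° C.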

[3] = 1 μM ATP (Km level), read-out: ALK Activity (ALK Kinase Inhibition, IC50)
[4] = 1 μM ATP (Km level), read-out: cMet Activity (c-Met Kinase Inhibition, IC50)
[5] = ALK kinase inhibition, 1 μM ATP, read-out: ALK Activity
[6] = c-Met kinase inhibition, 1 μM ATP, read-out: cMet Activity
[7] = 1 μM ATP (Km level), 30 ng/ml ALK, 37° C., 15 minutes, read-out: ALK Activity (ALK kinase inhibition, IC50 class)
[8] = 1 μM ATP (Km level), 10 ng/mL c-Met, read-out: cMet Activity (c-Met kinase inhibition, IC50 class)
[9] = ALK kinase inhibition, 1 μM ATP (Km level), read-out: ALK Activity
[10] = c-Met kinase inhibition, 1 μM ATP (Km level), read-out: cMet Activity

T1 sequence (Q9UM73 19-1620): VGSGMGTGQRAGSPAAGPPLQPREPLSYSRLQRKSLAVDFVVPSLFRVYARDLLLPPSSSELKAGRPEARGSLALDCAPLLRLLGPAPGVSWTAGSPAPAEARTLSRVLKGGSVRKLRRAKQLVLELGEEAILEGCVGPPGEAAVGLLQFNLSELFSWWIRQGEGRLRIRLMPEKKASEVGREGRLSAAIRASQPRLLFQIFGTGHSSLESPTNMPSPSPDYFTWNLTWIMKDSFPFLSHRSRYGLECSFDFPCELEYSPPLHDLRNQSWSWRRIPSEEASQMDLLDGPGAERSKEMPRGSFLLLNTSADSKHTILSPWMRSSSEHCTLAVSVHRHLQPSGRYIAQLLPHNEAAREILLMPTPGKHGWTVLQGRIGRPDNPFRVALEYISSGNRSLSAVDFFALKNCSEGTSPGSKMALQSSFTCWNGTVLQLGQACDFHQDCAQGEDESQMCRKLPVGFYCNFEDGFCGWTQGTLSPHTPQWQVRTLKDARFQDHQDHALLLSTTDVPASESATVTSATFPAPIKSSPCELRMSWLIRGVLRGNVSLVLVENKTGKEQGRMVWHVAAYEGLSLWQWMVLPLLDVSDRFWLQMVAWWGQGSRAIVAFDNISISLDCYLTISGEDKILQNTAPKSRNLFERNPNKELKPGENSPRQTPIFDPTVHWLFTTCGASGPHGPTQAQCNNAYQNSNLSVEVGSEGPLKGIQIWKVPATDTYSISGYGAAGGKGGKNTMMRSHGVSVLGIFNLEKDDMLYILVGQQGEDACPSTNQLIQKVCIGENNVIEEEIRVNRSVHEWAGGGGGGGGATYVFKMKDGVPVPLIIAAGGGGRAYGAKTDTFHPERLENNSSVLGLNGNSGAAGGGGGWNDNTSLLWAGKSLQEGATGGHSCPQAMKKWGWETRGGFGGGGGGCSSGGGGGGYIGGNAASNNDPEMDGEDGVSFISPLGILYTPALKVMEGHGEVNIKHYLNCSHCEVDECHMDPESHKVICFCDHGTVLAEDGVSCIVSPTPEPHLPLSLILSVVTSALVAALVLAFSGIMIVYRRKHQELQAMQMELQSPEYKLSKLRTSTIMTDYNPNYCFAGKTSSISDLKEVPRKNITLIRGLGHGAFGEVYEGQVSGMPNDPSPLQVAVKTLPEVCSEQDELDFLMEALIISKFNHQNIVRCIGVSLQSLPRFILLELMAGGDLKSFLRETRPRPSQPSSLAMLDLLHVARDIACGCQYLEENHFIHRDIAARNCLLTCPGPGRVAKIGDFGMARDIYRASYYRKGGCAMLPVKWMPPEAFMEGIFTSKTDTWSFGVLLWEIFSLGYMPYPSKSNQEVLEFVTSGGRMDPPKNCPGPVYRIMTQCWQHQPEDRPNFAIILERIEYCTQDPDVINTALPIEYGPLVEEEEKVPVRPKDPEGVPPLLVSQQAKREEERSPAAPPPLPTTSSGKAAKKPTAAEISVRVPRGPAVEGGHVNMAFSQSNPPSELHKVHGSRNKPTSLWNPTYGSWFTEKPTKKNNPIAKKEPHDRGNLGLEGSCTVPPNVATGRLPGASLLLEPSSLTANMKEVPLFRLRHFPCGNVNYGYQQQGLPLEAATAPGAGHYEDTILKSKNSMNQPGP
T2 sequence (P08581 956-1390 limits assumed): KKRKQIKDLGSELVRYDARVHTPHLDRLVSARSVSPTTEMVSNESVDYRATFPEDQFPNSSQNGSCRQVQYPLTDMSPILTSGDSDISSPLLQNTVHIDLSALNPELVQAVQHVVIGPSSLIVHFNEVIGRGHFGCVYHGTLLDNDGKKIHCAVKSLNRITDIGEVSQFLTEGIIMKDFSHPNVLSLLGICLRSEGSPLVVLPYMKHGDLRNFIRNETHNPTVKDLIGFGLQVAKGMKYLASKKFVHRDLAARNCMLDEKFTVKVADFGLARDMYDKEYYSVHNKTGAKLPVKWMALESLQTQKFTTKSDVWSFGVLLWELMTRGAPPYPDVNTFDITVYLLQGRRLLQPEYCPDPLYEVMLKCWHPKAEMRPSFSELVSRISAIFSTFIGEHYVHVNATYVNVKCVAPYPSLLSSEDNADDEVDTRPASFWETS

Compound: COCCNC1CCCc2c(ccc(Nc3ncc(Cl)c(Nc4ccccc4S(=O)(=O)N(C)C)n3)c2OC)C1 (stereo not shown) [Example 957, 2-{5-Chloro-2-[1-methoxy-6-(2-methoxy-ethylamino)-6,7,8,9-tetrahydro-5H-benzocyclohepten-2-ylamino]-pyrimidin-4-ylamino}-N,N-dimethyl-benzenesulfonamide]
IC50 [1, 3]: < 100 nM | IC50 [2, 4]: > 10000 nM

Compound: C#CCNC(=O)c1cc(F)cc(F)c1Nc1nc(Nc2ccc3c(c2)NC(=O)CCC3)ncc1Cl [Example 1729, 2-[5-Chloro-2-(2-oxo-2,3,4,5-tetrahydro-1H-benzo[b]azepin-8-ylamino)-pyrimidin-4-ylamino]-3,5-difluoro-N-prop-2-ynyl-benzamide]
IC50 [1, 5]: 1000 to 10000 nM | IC50 [2, 6]: 100 to 1000 nM

Compound: NC(=O)C1C2CCC(C2)C1Nc1nc(Nc2ccc3c(c2)CCN(CC(O)C(F)(F)F)CC3)ncc1Cl [Example 331, (2-exo,3-exo)-3-{5-Chloro-2-[3-((S)-3,3,3-trifluoro-2-hydroxy-propyl)-2,3,4,5-tetrahydro-1H-benzo[d]azepin-7-ylamino]-pyrimidin-4-ylamino}-bicyclo[2.2.1]heptane-2-carboxylic acid amide]
IC50 [1, 9]: < 100 nM | IC50 [2, 10]: 100 to 1000 nM

Compound: CNC(=O)c1cccc(Cl)c1Nc1nc(Nc2ccc3c(c2)CCCC(=O)N3CCOC)ncc1Cl [Example 357, 3-Chloro-2-{5-chloro-2-[1-(2-methoxy-ethyl)-2-oxo-2,3,4,5-tetrahydro-1H-benzo[b]azepin-7-ylamino]-pyrimidin-4-ylamino}-N-methyl-benzamide]
IC50 [1, 9]: 1000 to 10000 nM | IC50 [2, 10]: < 100 nM

Compound: CN1Cc2cc(Nc3ncc(Cl)c(Nc4ccccc4OCC#N)n3)ccc2CCC1=O [Example 1810, {2-[5-Chloro-2-(2-methyl-3-oxo-2,3,4,5-tetrahydro-1H-benzo[c]azepin-8-ylamino)-pyrimidin-4-ylamino]-phenoxy}-acetonitrile]
IC50 [1, 5]: < 100 nM | IC50 [2, 6]: < 100 nM

Compound: COc1cc2c(cc1Nc1ncc(Cl)c(Nc3ccccc3S(=O)(=O)C(C)C)n1)CCN(CC(=O)N1CCCC1)CC2 [Example 1158, 2-(7-{5-Chloro-4-[2-(propane-2-sulfonyl)-phenylamino]-pyrimidin-2-ylamino}-8-methoxy-1,2,4,5-tetrahydro-benzo[d]azepin-3-yl)-1-pyrrolidin-1-yl-ethanone]
IC50 [1, 7]: < 100 nM | IC50 [2, 8]: 1000 to 10000 nM

Compound: CNC(=O)c1ccc(C(F)(F)F)cc1Nc1nc(Nc2ccc3c(c2)CCOC(=O)N3C)ncc1Cl [Example 1754, 2-[5-Chloro-2-(5-methyl-6-oxo-5,6,8,9-tetrahydro-7-oxa-5-aza-benzocyclohepten-2-ylamino)-pyrimidin-4-ylamino]-N-methyl-4-trifluoromethyl-benzamide]
IC50 [1, 5]: 100 to 1000 nM | IC50 [2, 6]: 100 to 1000 nM

Compound: CCN1CCN(CC(=O)OCCOC)C(=O)c2ccc(Nc3ncc(Cl)c(Nc4c(F)cccc4C(=O)NC)n3)cc21 [Example 1458, {8-[5-Chloro-4-(2-fluoro-6-methylcarbamoyl-phenylamino)-pyrimidin-2-ylamino]-1-ethyl-5-oxo-1,2,3,5-tetrahydro-benzo[e][1,4]diazepin-4-yl}-acetic acid 2-methoxy-ethyl ester]
IC50 [1, 5]: 100 to 1000 nM | IC50 [2, 6]: < 100 nM

Compound: C=CCOc1cc(N2CCOCC2)cc(F)c1Nc1nc(Nc2ccc3c(c2)CCOC(=O)N3C)ncc1Cl [Example 1700, 2-[4-(2-Allyloxy-6-fluoro-4-morpholin-4-yl-phenylamino)-5-chloro-pyrimidin-2-ylamino]-5-methyl-8,9-dihydro-5H-7-oxa-5-aza-benzocyclohepten-6-one]
IC50 [1, 5]: < 100 nM | IC50 [2, 6]: 1000 to 10000 nM

Compound: COc1cc2c(cc1Nc1ncc(Cl)c(Nc3ccccc3-n3cccn3)n1)CCC(NCCO)CC2 (stereo not shown) [Example 1091, 2-{2-[5-Chloro-4-(2-pyrazol-1-yl-phenylamino)-pyrimidin-2-ylamino]-3-methoxy-6,7,8,9-tetrahydro-5H-benzocyclohepten-7-ylamino}-ethanol]
IC50 [1, 7]: < 100 nM | IC50 [2, 8]: 1000 to 10000 nM

Compound: Cc1ccnc(-c2ccccc2Nc2nc(Nc3ccc4c(c3)C(C)(C)CCC(=O)N4)ncc2Cl)c1 [Example 1001, 7-{5-Chloro-4-[2-(4-methyl-pyridin-2-yl)-phenylamino]-pyrimidin-2-ylamino}-5,5-dimethyl-1,3,4,5-tetrahydro-benzo[b]azepin-2-one]
IC50 [1, 3]: 100 to 1000 nM | IC50 [2, 4]: > 10000 nM

Compound: C#CCNC(=O)c1cccc(F)c1Nc1nc(Nc2ccc3c(c2)N(C(=O)CN2C(=O)c4ccccc4C2=O)CCCC3(C)C)ncc1Cl [Example 1618, 2-(5-Chloro-2-{1-[2-(1,3-dioxo-1,3-dihydro-isoindol-2-yl)-acetyl]-5,5-dimethyl-2,3,4,5-tetrahydro-1H-benzo[b]azepin-8-ylamino}-pyrimidin-4-ylamino)-3-fluoro-N-prop-2-ynyl-benzamide]
IC50 [1, 5]: > 10000 nM | IC50 [2, 6]: < 100 nM

Continued, values first:

IC50 [1, 5]: > 10000 nM | IC50 [2, 6]: 1000 to 10000 nM
Compound: CNC(=O)c1noc(C)c1Nc1nc(Nc2ccc3c(c2)CCOC(=O)N3C)ncc1Cl [Example 1775, 4-[5-Chloro-2-(5-methyl-6-oxo-5,6,8,9-tetrahydro-7-oxa-5-aza-benzocyclohepten-2-ylamino)-pyrimidin-4-ylamino]-5-methyl-isoxazole-3-carboxylic acid methyl amide]

IC50 [1, 7]: < 100 nM | IC50 [2, 8]: > 10000 nM
Compound: CCN1C(=O)CCCc2cc(Nc3ncc(Cl)c(Nc4ccccc4-n4cccn4)n3)c(OC)cc21 [Example 1317, 7-[5-Chloro-4-(2-pyrazol-1-yl-phenylamino)-pyrimidin-2-ylamino]-1-ethyl-8-methoxy-1,3,4,5-tetrahydro-benzo[b]azepin-2-one]

IC50 [1, 7]: 100 to 1000 nM | IC50 [2, 8]: < 100 nM
Compound: C#CCNC(=O)c1cccc(F)c1Nc1nc(Nc2ccc3c(c2)NC(=O)C(NC(=O)C(F)(F)F)CC3(C)C)ncc1Cl (stereo not shown) [Example 1279, 2-{5-Chloro-2-[5,5-dimethyl-2-oxo-3-(2,2,2-trifluoro-acetylamino)-2,3,4,5-tetrahydro-1H-1-benzazepin-8-ylamino]-pyrimidin-4-ylamino}-3-fluoro-N-prop-2-ynyl-benzamide]

IC50 [1, 9]: < 100 nM | IC50 [2, 10]: > 10000 nM
Compound: COCCN1CCc2cc(Nc3ncc(Cl)c(N[C@@H]4CCCC[C@H]4NS(C)(=O)=O)n3)c(OC)cc2CC1 [Example 111, N-((1R,2R)-2-{5-Chloro-2-[8-methoxy-3-(2-methoxy-ethyl)-2,3,4,5-tetrahydro-1H-benzo[d]azepin-7-ylamino]-pyrimidin-4-ylamino}-cyclohexyl)-methanesulfonamide]

IC50 [1, 3]: < 100 nM | IC50 [2, 4]: > 10000 nM
Compound: COCC(COC)N1CCc2cc(Nc3ncc(Cl)c(Nc4ccc(N5CCOCC5)cc4OC)n3)c(OC)cc2CC1 [Example 814, 5-Chloro-N*2*-[8-methoxy-3-(2-methoxy-1-methoxymethyl-ethyl)-2,3,4,5-tetrahydro-1H-benzo[d]azepin-7-yl]-N*4*-(2-methoxy-4-morpholin-4-yl-phenyl)-pyrimidine-2,4-diamine]

IC50 [1, 3]: < 100 nM | IC50 [2, 4]: > 10000 nM
Compound: COc1c(Nc2ncc(Cl)c(Nc3ccccc3S(=O)(=O)N3CC[C@@H](O)C3)n2)ccc2c1CCCC(NCCO)C2 (stereo partly drawn) [Example 962, (R)-1-(2-{5-Chloro-2-[6-(2-hydroxy-ethylamino)-1-methoxy-6,7,8,9-tetrahydro-5H-benzocyclohepten-2-ylamino]-pyrimidin-4-ylamino}-benzenesulfonyl)-pyrrolidin-3-ol]

IC50 [1, 5]: 1000 to 10000 nM | IC50 [2, 6]: 1000 to 10000 nM
Compound: CNCc1ccccc1Nc1nc(Nc2ccc3c(c2)CCOC(=O)N3C)ncc1Cl [Example 1791, 2-[5-Chloro-4-(2-methylaminomethyl-phenylamino)-pyrimidin-2-ylamino]-5-methyl-8,9-dihydro-5H-7-oxa-5-aza-benzocyclohepten-6-one]

IC50 [1, 9]: < 100 nM | IC50 [2, 10]: 1000 to 10000 nM
Compound: CC(C)(F)CN1CCc2ccc(Nc3ncc(Cl)c(N[C@@H]4CCCC[C@H]4NS(C)(=O)=O)n3)cc2CC1 [Example 40, N-((1R,2R)-2-{5-Chloro-2-[3-(2-fluoro-2-methyl-propyl)-2,3,4,5-tetrahydro-1H-benzo[d]azepin-7-ylamino]-pyrimidin-4-ylamino}-cyclohexyl)-methanesulfonamide]

IC50 [1, 3]: < 100 nM | IC50 [2, 4]: > 10000 nM
Compound: (1S,2S,3R,4R)-3-[5-Chloro-2-[4-cyclopropylmethyl-7-methoxy-2,3,4,5-tetrahydro-1H-benzo[e][1,4]diazepin-8-ylamino)-pyrimidin-4-ylamino]-bicyclo(2.2.1)hept-5-ene-2-carboxylic acid amide [Example 747]

IC50 [1, 5]: < 100 nM | IC50 [2, 6]: < 100 nM
Compound: CCN1CCN(CC(=O)OCCOC)C(=O)c2ccc(Nc3ncc(Cl)c(Nc4ccccc4C(=O)NC)n3)cc21 [Example 1459, {8-[5-Chloro-4-(2-methylcarbamoyl-phenylamino)-pyrimidin-2-ylamino]-1-ethyl-5-oxo-1,2,3,5-tetrahydro-benzo[e][1,4]diazepin-4-yl}-acetic acid 2-methoxy-ethyl ester]

IC50 [1, 5]: < 100 nM | IC50 [2, 6]: 100 to 1000 nM
Compound: CC1(C)CCCN(C(=O)CN2CCCC2)c2cc(Nc3ncc(Cl)c(N[C@H]4[C@@H](C(N)=O)[C@@H]5C=C[C@H]4C5)n3)ccc21 [Example 1607, (1S,2S,3R,4R)-3-{5-Chloro-2-[5,5-dimethyl-1-(2-pyrrolidin-1-yl-acetyl)-2,3,4,5-tetrahydro-1H-benzo[b]azepin-8-ylamino]-pyrimidin-4-ylamino}-bicyclo[2.2.1]hept-5-ene-2-carboxylic acid amide]
